Data taken from patent publication US10882901B2, “Methods of treating diabetes by an adipocyte protein 2 specific antibody” (President and Fellows of Harvard College, priority 2009, dated 2021).
“Also recorded” adds a separate entry of the source.

Tests used:
serum aP2 = assay: Serum aP2 in mice after isoproterenol-induced lipolysis; assay type: in vivo; conditions: isoproterenol 10 mg/kg, blood 15 min following injection, vs vehicle
Experimental: Blood was collected from mice by tail bleeding after 6 hours of food withdrawal and spun in a microcentrifuge at 13,000 rpm for 30 minutes. Serum aP2 was determined with an ELISA system (Biovendor Inc.). […] To determine aP2 levels during lipolysis, blood was collected from 12 mice at baseline levels. After this, 6 mice were injected with isoproterenol (10 mg/kg body weight) and the other 6 received vehicle control. Blood samples were collected 15 min following injection for aP2 measurement.

[1] = system: differentiated adipocytes; assay: Adiponectin secretion into conditioned medium of differentiated adipocytes (immunoblot); assay type: cell-based; conditions: inhibitors of classical secretory pathways
Excerpt: FIG. 7A is a photograph of an electrophonetic gel showing non-classical secretion of aP2. Conditioned medium from adipocytes treated with control, brefeldin A (Bref A) or monensin (Mon) were blotted using anti-aP2 or adiponectin antibodies. Whole cell lysate (WCL) was also blotted using anti-aP2 antibody.
(§1) Tissue protein lysate and conditioned medium from adipocytes were separated on SDS-PAGE gels and stained with Coomassie (Biorad Laboratory), or were detected with immunoblotting using the following antibodies: adiponectin from Santa Cruz Biotechnology, MFG-E8 from Calbiochem, caveolin-1 from BD Bioscience, AKT from Cell Signaling Technology. Flag-tagged aP2 was immunoprecipated using 4 ml of conditioned medium from transfected HEK 293 cells after incubation with 30 μl Flag agarose beads (Sigma) overnight at 4° C. Proteins bound to agarose beads were eluted with SDS loading buffer and resolved with SDS-PAGE.

[2] = system: differentiated adipocytes; assay: aP2 secretion into conditioned medium of differentiated adipocytes (immunoblot); assay type: cell-based; conditions: for aP2 release from adipocytes treated with inhibitors of classical secretory pathways: conditioned medium blotted with anti-aP2; for lipolysis-induced aP2 secretion from adipocytes: co-treatment of adipocytes in which lipolysis was induced (IBMX/dbcAMP)
Excerpt: HEK 293 cells were maintained in DMEM with 10% fetal bovine serum. FABP-deficient cell lines were established as previously described. Cao, H. et al. Identification of a lipokine, a lipid hormone linking adipose tissue to systemic metabolism. Cell 134, 933-944 (2008). Makowski, L. et al. Lack of macrophage fatty-acid-binding protein aP2 protects mice deficient in apolipoprotein E against atherosclerosis. Nat Med 7, 699-705 (2001). Pre-adipocytes were maintained in DMEM with 10% bovine calf serum and differentiated into adipocytes in DMEM with 10% cosmic calf serum (CCS) using a standard differentiation protocol. To induce lipolysis, differentiated adipocytes were treated with forskolin at 20 nM, or IBMX 1 mM/dibutyryl cAMP 1 mM for one hour. For lipid treatments, 0.25 mM palmitate or stearate was dissolved in DMEM with 10% CCS and added to adipocytes cultured in 12-well plates. At the end of one hour, the medium was replaced with the same lipid-containing medium, and conditioned medium was collected an additional hour later. To collect fat explants, epididymal adipose tissue depots were dissected from mice and rinsed twice in PBS. Adipose tissue samples were then transferred into DMEM with 10% CCS and minced into an average size of 1 to 2 mm. The tissue explants were washed extensively with DMEM and cultured in DMEM containing 10% CCS. Lipolysis was induced in the same manner as adipocytes.
as §1

PEPCK and G6P = assay: Liver gluconeogenic gene expression by quantitative real-time PCR; assay type: in vivo; conditions: WT mice infused with recombinant aP2 vs control protein
Experimental: FIG. 6K is a bar graph showing gene expression in livers of WT mice infused with control protein or recombinant aP2 (top panel) or mice on HFD injected with control or aP2 antibody (bottom panel). PEPCK and G6P in liver tissues were analyzed with quantitative real-time PCR. *, p<0.05.
Total RNA was isolated from liver tissues using Trizol reagent (Invitrogen). Reverse transcription was carried out with a superscript first-strand cDNA synthesis system (Applied Biosystems Inc.) using 1 μg of RNA. Quantitative, real-time RT-PCR was performed on a PCR thermal cycler (Applied Biosystems Inc.). The PCR program was: 2 min 30 s at 95° C. for enzyme activation, 40 cycles of 15 s at 95° C., 30 s at 58° C., and 1 min at 72° C. for extension. Melting curve analysis was performed to confirm the real-time PCR products. All quantitations were normalized to the 1 8S rRNA. Primer sequences used were the following: PEPCK, forward: […](SEQ ID NO: 5), reverse: CAGCAACTGCCCGTACTCC (SEQ ID NO: 6); G6P, forward: […] (SEQ ID NO:7), reverse: […] (SEQ ID NO: 8).

FABP-deficient mice = assay: Hyperinsulinemic-euglycemic clamp in FABP-deficient mice infused with recombinant aP2; assay type: in vivo
Experimental: The mice were fasted overnight before the experiments and were infused with Intralipid at 3 ml/kg/h (Abbott) and heparin (6 U/h) for 5 hours. […] Mice were catheterized as described above. Hyperinsulinemic-euglycemic clamps were performed by a modification of a reported procedure^15. After an overnight fast, HPLC purified [3H]-glucose (0.05 μCi/min; PerkinElmer Life and Analytical Sciences, Boston, Mass.) was infused during the 2-h basal period, and blood samples were collected at the end to estimate the rate of basal hepatic glucose production. After the basal period, a 120-min hyperinsulinemic-euglycemic clamp was conducted with a primed-continuous infusion of human insulin (Humulin R; Eli Lilly, Indianapolis, Ind.) at a rate of 12.5 mU/kg/min. Blood samples were collected at 20-min intervals for the immediate measurement of plasma glucose concentrations, and 25% glucose was infused at variable rates to maintain plasma glucose at basal concentrations. Insulin-stimulated whole-body glucose turnover was estimated with a continuous infusion of [3-^3H]-glucose throughout the clamps (0.1 μCi/min). All infusions were performed using flow-controlled microdialysis pumps (CMA/Microdialysis, North Chelmsford, Mass.). Blood samples were taken at 80, 85, 90, 100, 110, and 120 min after the start of clamps for the determination of plasma [^3H]-glucose, and ^3H2O concentrations. […]

[3] = Serum aP2 ELISA after recombinant aP2 injection or infusion; assay type: in vivo, mice
Experimental: FIG. 11 is a bar graph showing serum aP2 in WT mice after recombinant aP2 injection. Serum samples of mice were collected at indicated time points after aP2 injection and aP2 levels were determined with an aP2 ELISA.
FIG. 13 is a line graph showing Serum aP2 in FABP-deficient (DKO) mice during aP2 infusion. Serum samples were collected from FABP-deficient mice during aP2 infusion at indicated time points. Serum aP2 levels were determined with an aP2 ELISA.
Blood was collected from mice by tail bleeding after 6 hours of food withdrawal and spun in a microcentrifuge at 13,000 rpm for 30 minutes. Serum aP2 was determined with an ELISA system (Biovendor Inc.). To monitor nutritional regulation of serum aP2, blood samples were collected from mice immediately prior to the start of dark cycle after which animals were placed in cages without food. After 24 hours of fasting, a second set of blood samples were collected and food was provided. Final blood sampling was performed 4 hours after re-feeding. To determine aP2 levels during lipolysis, blood was collected from 12 mice at baseline levels. After this, 6 mice were injected with isoproterenol (10 mg/kg body weight) and the other 6 received vehicle control. Blood samples were collected 15 min following injection for aP2 measurement. […]

[4] = system: WT mice maintained on regular chow diet; assay: Glucose tolerance test of regular diet mice injected with recombinant aP2; assay type: in vivo; conditions: lean WT mice, recombinant aP2 100 μg twice a day for two weeks, vs control Gus protein
Excerpt: FIG. 6I is a line graph showing glucose tolerance test of mice on regular diet injected with control Gus protein or recombinant aP2 for two weeks. *, p<0.05. Mice with homozygous null mutations in aP2 and mall were backcrossed more than 12 generations into a C57BL/6J genetic background. Mice were maintained on regular chow diet (RD) or placed on high-fat diet (Research Diets, Inc) at 4 weeks of age for 20 weeks to induce dietary obesity. Leptin-deficient (ob/ob) mice were purchased from the Jackson laboratory. All mice were maintained on a 12-hour light and dark cycle. Glucose and insulin tolerance tests using standard methods. Recombinant aP2 or control Gus protein with 6×His tag was produced in E. coli and purified with B-PER 6×His Spin Purification Kit (Pierce Biotechnology, Inc). Proteins were further purified by removing endotoxin with a commercial system (Lonza Inc.). 100 μg of control or aP2 protein was injected into WT mice maintained on regular chow diet twice a day for two weeks. The rabbit polyclonal antibody against mouse aP2 was produced using recombinant, full-length aP2 protein and the antibody was purified from serum of the final bleed using the NAb™ Spin system (Pierce Biotechnology, Inc). Pre-immune serum was purified similarly and used as control. […]

For `CC(C)NCC(O)c1ccc(O)c(O)c1` (centres unmarked) [isoproterenol], the “serum aP2 levels” value (serum aP2) was “rapid increase in serum aP2 levels”.

In the case of `CC[C@@]1([C@@H]2O[C@@H]([C@H]3O[C@@](O)(CO)[C@H](C)C[C@@H]3C)C[C@@H]2C)CC[C@H]([C@]2(C)CC[C@]3(C[C@H](O)[C@@H](C)[C@@H]([C@@H](C)[C@@H](OC)[C@H](C)C(=O)O)O3)O2)O1` [monensin], the “adiponectin secretion from adipocytes” value [1] is reported as “efficiently blocked adiponectin secretion” and the “aP2 release from adipocytes treated with inhibitors of classical secretory pathways” value [2] is reported as “neither had any inhibitory effect”.

For diethylumbelliferyl phosphate [DEUP], the “lipolysis-induced aP2 secretion from adipocytes” value [2] was “completely blocked lipolysis-induced aP2 secretion”.

In the case of insulin, the “lipolysis-induced aP2 secretion from adipocytes” value [2] is reported as “aP2 secretion was suppressed”.

For `C[C@H]1CCC/C=C/[C@@H]2C[C@H](O)C[C@H]2[C@H](O)/C=C/C(=O)O1` [brefeldin A], the “adiponectin secretion from adipocytes” value [1] was “efficiently blocked adiponectin secretion” and the “aP2 release from adipocytes treated with inhibitors of classical secretory pathways” value [2] was “neither had any inhibitory effect”.

B1: recombinant aP2: Recombinant aP2 with 6×His tag produced in E. coli, purified, endotoxin removed (protein)
chain: CDAFVGTWKLVSSENFDDYMKEVGVGFATRKVAGMAKPNMIISVNGDLVTIRSESTFKNTEISFKLGVEFDEITADDRKVKSIITLDGGALVQVQKWDGKSTTIKRKRDGDKLVVECVMKGVTSTRVYERA
In the case of B1, the “G6P gene expression in liver” value (PEPCK and G6P) is reported as “significantly upregulated”, the “PEPCK gene expression in liver” value (PEPCK and G6P) is reported as “significantly upregulated” and the glucose metabolism rates (FABP-deficient mice; FABP-deficient mice infused with recombinant aP2) is reported as “absence of alterations in glucose metabolism rates”. The “basal hepatic glucose production (bHGP)” value (FABP-deficient mice; FABP-deficient mice infused with recombinant aP2 for 4 hours, vs control protein) was “significantly increased basal hepatic glucose production”, the “serum aP2 levels during aP2 infusion” value ([3]; FABP-deficient mice, infusion 8 μg/kg/min) was “rapid increase in serum aP2 levels” and the “serum aP2 levels after a single dose of recombinant aP2” value ([3]; WT mice on regular chow diet, injection) was “increased levels of serum aP2 that lasted for several hours”. The “glucose tolerance in glucose tolerance test” value [4] was “mild glucose intolerance; also recorded: developed glucose intolerance”.
